One test concerns CRF2 receptors. Put plainly: CRF receptor autoradiography, rat brain sections, CRF2-rich regions. It is filed as binding. On the procedure: (§1) For CRF receptor autoradiography, brain tissue was sectioned coronally (20 μm) using a cryostat (−17° C.). Sections were mounted on Superfrost Plus+ charged glass slides (Fisher Scientific, Pittsburgh, Pa.), permitted to dry completely, and stored in airtight boxes at −80° C. until the day of autoradiography. Autoradiography was performed using standard procedures based on the previous characterization of [^125I]Tyr^0-sauvagine [Grigoriadis et al., Mol. Pharmacol. (1996) 50:679-686].
(§2) Slides containing triplicate adjacent brain sections were thawed to room temperature and permitted to dry completely. Each section then was outlined using a PAP pen (Calbiochem, San Diego, Calif.). Sections were incubated in assay buffer (DPBS with 10 mM MgCl2, 2 mM EGTA, 1 tablet/100 ml protease inhibitor, 0.15% bovine serum albumin) for 15 minutes to remove endogenous ligand. Slides then were incubated under one of four conditions: (1) 0.2 nM […] to determine total binding; (2) 0.2 nM radiolabeled sauvagine+1 μM R121919 (below)
to determine non-CRF1 (e.g., CRF2) receptor binding; (3) 0.2 nM radiolabeled sauvagine+3 μM MPZP to determine non-CRF1 (e.g., CRF2) receptor binding using the experimental compound under study; (4) 0.2 nM radiolabeled sauvagine+0.3 μM unlabeled D-Phe-CRF12-41, a subtype-nonspecific CRF receptor antagonist, to determine non-CRF1/CRF2 (e.g., nonspecific binding).
After 2 hours incubation at room temperature, unbound radioligand was removed via a brief dip in ice-cold assay buffer, followed by two 5 minute rinses in ice-cold washing buffer (DPBS with 0.01% Triton-X100) and one brief dip in ice-cold distilled, deionized H2O. Slides then were dried at room temperature and exposed to Kodak Biomax MR film for 2 days. Unlabeled peptides (sauvagine, D-Phe-CRF12-41) were generously provided by Dr. Jean Rivier (The Salk Institute, La Jolla, Calif.). Images were captured using a light box and digital camera computer workstation using a MTI CCDC72 digital camera equipped with a 90 mm Tamron macro lens. […]

Test [1] relates to cocaine self-administration. The test is described as follows: Cocaine self-administration in short access (ShA) and long access (LgA) rats. The class given is in vivo, rat. The following applies: for cocaine intake compared with vehicle: 45 minutes before session.
Test [2] concerns defensive burying model of active anxiety-like behavior. The settings on record: doses similar to 3.6-27.5 mg/kg; Fekete et al. 2003; cited from earlier work.
In test [3] the target is T1, CRF1 receptors (Rattus norvegicus, UniProt P35353).
T1 sequence (P35353 24-415): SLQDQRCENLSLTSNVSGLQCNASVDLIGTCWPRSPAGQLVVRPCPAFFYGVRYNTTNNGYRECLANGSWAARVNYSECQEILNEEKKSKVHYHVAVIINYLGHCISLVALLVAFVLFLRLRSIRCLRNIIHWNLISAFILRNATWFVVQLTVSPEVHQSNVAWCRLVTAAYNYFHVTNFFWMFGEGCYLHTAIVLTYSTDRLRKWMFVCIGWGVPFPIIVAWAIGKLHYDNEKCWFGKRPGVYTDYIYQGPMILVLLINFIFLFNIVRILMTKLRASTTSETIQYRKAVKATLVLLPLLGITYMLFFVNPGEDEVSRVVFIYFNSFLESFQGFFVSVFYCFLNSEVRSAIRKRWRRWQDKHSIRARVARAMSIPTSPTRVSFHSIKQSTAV
The test is described as follows: CRF receptor autoradiography, rat brain sections, CRF1-rich regions. Further details: from tissue. The class given is binding. On the procedure: as §1, §2
to determine non-CRF1 (e.g., CRF2) receptor binding; (3) 0.2 nM radiolabeled sauvagine+3 μM MPZP to determine non-CRF1 (e.g., CRF2) receptor binding using the experimental compound under study; (4) 0.2 nM radiolabeled sauvagine+0.3 μM unlabeled D-Phe-CRF12-41, a subtype-nonspecific CRF receptor antagonist, to determine non-CRF1/CRF2 (e.g., nonspecific binding). […]

The target in test [4] is T1, CRF1 receptors. Put plainly: [125I]-Tyr0-sauvagine competition binding, rat cerebellar membrane homogenates. Further details: from tissue; host or cells: rat cerebellum, membrane homogenate. The settings on record: read-out: IC50, displacement of specific [125I]-Tyr0-sauvagine binding. As for the experimental part: Binding activity of MPZP was determined in a competition assay using […] (2200 Ci/mmol; Perkin Elmer, Waltham, Mass.) as the radioligand. Cerebellum was homogenized in homogenizing buffer (Dulbecco's phosphate-buffered saline [PBS]:1.5 mM KH2PO4, 8.1 mM Na2HPO4, 2.7 mM KCl, 138 mM NaCl, pH 7.2, supplemented with 10 mM MgCl2, 2 mM EGTA) using a Polytron (Dispersing and Mixing Technology, Kinematica, Littau-Lucerne, Switzerland) at setting 6 for 2×15 seconds on ice. The homogenate was centrifuged at 45,000×g for 20 minutes at 4° C. The pellet was resuspended and spun at 45,000×g for 20 minutes at 4° C. The final pellet was resuspended in assay buffer (homogenizing buffer supplemented with protease inhibitor; 1 tablet/10 ml; Sigma CAT#58829-20TAB, St. Louis, Mo., pH 7.4) using a Polytron.
Med. Chem. (2000) 8:181-189], whose structural formula is shown below.
Total binding was determined using assay buffer in lieu of a CRF1 antagonist, and nonspecific binding was determined in the presence of 1 μM unlabeled sauvagine. The final radioligand concentration was 0.2 nM, and the reaction was incubated at room temperature for 2 hours. […] The pellet-containing tip was cut off and counted in an automated 10-detector gamma counter (MicroMedic Apex, ICN Biomedical, Costa Mesa, Calif.) at 80% efficiency. […]

On to `COCCN(CCOC)c1cc(C)nc2c(-c3ccc(OC)cc3C)c(C)nn12` [MPZP, N,N-bis(2-methoxyethyl)-3-(4-methoxy-2-methylphenyl)-2,5-dimethyl-pyrazolo[1,5-a]pyrimidin-7-amine], for which the “displacement of [125I]-Tyr0-sauvagine binding from CRF2-rich regions” value with CRF2 receptors (3 μM, rat lateral septum, ventromedial hypothalamus, choroid plexus, cerebral arterioles) is reported as “did not displace”. In addition, in the test on CRF2 receptors (at up to 1 μM concentrations), the “specificity for CRF2 receptors” value is on record as “no measurable specificity”. In the test on CRF2 receptors (rat lateral septum or ventromedial hypothalamus, concentration printed 1 mM), the “displacement of [125I]-Tyr0-sauvagine binding (CRF2-like binding)” value is on record as “does not displace”. For the same molecule, the “slope of linear trend dose function on cocaine intake” value in test [1] (LgA rats) is listed as −0.601±0.176; in test [1] (ShA rats) it was −0.254±0.106. Further, the “cocaine intake compared with vehicle” value in test [1] (LgA rats, 10 mg/kg s.c.) is on record as “significant decrease”; in test [1] (LgA rats, 27.5 mg/kg s.c.), “significant decrease”; in test [1] (ShA rats, 27.5 mg/kg s.c.), “significant decrease”. Further, in test [2], the “anxiety-like behavior in the defensive burying test” value is listed as “reduced anxiety-like behavior”. In addition, the “displacement of [125I]-Tyr0-sauvagine (CRF1-like binding)” value on CRF1 receptors [3] (cerebral cortex, concentration printed 1 mM) is recorded as “displaces the majority”. Moreover, the “displacement of [125I]-Tyr0-sauvagine binding from CRF1-rich regions” value at CRF1 receptors [3] (cortex and basolateral amygdala, 3 μM) is recorded as “displaced most”. At CRF1 receptors [4], the 50% inhibitory concentration (IC50) is 6.1 nM.

As a reminder, the IC50 is the concentration that inhibits the measured activity by half.

The record behind these values is patent US20100249138A1, “MPZP: A SMALL MOLECULE CORTICOTROPIN-RELEASING FACTOR TYPE 1 RECEPTOR (CRF1) ANTOGONIST” (priority 2007, published 2010).
